Test results published in patent publication US9006440B2, “Furopyridine derivatives” (Merck Patent GmbH, priority 2010, dated 2015).

Key:
[1] = system: BLNK phosphorylation in Ramos cells; experiment: BCR crosslinking-induced BLNK phosphorylation (BLNK cell assay); format: cell-based; conditions: Homo sapiens
Description: 1. BCR Crosslinking-Induced BLNK Phosphorylation
Ramos cells incubated overnight in IMDM medium containing 5% FCS were resuspended in IMDM medium without serum (3.3×10^6 cells/ml). 90 μl of cell suspension (300′000 cells) were incubated with 10 μl of SYK inhibitors (in 3% DMSO) for 20 minutes at 37° C., in 96 well plates. After preincubation with inhibitors, cells were activated with 10 μg/ml of goat antihuman anti-IgM for 10 minutes at 37° C. After stimulation, cells were fixed by addition of 80 μl of 4% paraformaldehyde followed by a 10 minutes incubation at RT and […] in 0.1% Triton X-100 in PBS. BLNK phosphorylation was detected by flow cytometry after staining of the cells with anti-BLNK-pY84-PE antibodies from BD pharmingen, for 45 minutes at RT.
BLNK phosphorylation in CD19^+ peripheral blood mononuclear cells (PBMC) isolated from buffy coats of healthy volunteers was performed using the same protocol and staining the cells with a mixture of anti-BLNK-pY84-PE, anti CD-19 PerCp and Anti-IgM APC antibodies from BD Pharmingen.

Syk = biological target: T1, Syk (Homo sapiens, UniProt P43405); experiment: Syk enzyme assay (SYK flash plate assay / Caliper mobility shift); format: biochemical
T1 construct: purchased BPS Bioscience, CA, USA
Summary of the method: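 Flashplate format: 2.5 nM SYK, 400 nM biotinylated peptide, 10 μM ATP with 33P-ATP, pH 7.5, 1 h at 30 °C; radioactivity read, staurosporine background. Caliper format: 90 min at 25 °C, mobility-shift read of substrate-to-product conversion; IC50 from dose-response curve.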

BTK = biological target: T2, BTK (Homo sapiens, UniProt Q06187); experiment: BTK enzymatic assay (Caliper LifeSciences technology); format: biochemical
T2 construct: purchased Carna Bioscience, Kobe, Japan
Description: (§1) The assays described here are performed on the Caliper Life Sciences LC3000 system This technology provides data on enzyme activity via measurement of the relative amounts of phosphorylated or unphosphorylated fluorescently labelled substrate peptide at the end of an enzymatic reaction. These different states of peptide are resolved by applying a potential difference across the sample. The presence of the charged phosphate group on the product (as opposed to the substrate) causes a different peptide mobility between the two peptides. This is visualized by excitation of the fluorescent label on the substrate and product peptides and represented as peaks within the analysis software.
(§2) In order to measure inhibitor activity of kinase inhibitors on this technology, a TTP Mosquito liquid handling instrument is used to place 0.25 ul of the appropriate concentration of inhibitor in 100% DMSO (for a dose response curve calculation) into each well of a 384-well plate. To this reaction components are added to a final volume of 25 ul. The table below indicates the sequences and concentrations for the assays described in this report. Standard components are 1 mM DTT (Sigma, D0632), 1 mM MgCl2 (Sigma, M1028), 100 mM HEPES pH 7.5 (Calbiochem, 391338), 0.015% Brij-35 (Sigma, B4184).
(§3) The reaction is incubated for 90 min at 25 C, and then stopped by the addition of 70 ul of Stop buffer (100 mM HEPES pH 7.5, 0.015% Brij-35, 10 mM EDTA (Sigma, E7889)).
(§4) The plate is read on a Caliper LC 3000 in an Off-Chip mobility shift assay format, on a 12-sipper chip. Unphosphorylated substrate and phosphorylated product peptide resolve as separate peaks allowing direct measurement of percentage of conversion of substrate to product. The percent conversion can be plotted against concentration of inhibitor to produce a sigmoidal dose response curve, from which an IC50 can be calculated using GeneData Condoseo or a similar product.

SRC = biological target: T3, SRC (Homo sapiens, UniProt P12931); experiment: Src enzymatic assay (Caliper LifeSciences technology); format: biochemical
T3 construct: purchased Carna Bioscience, Kobe, Japan
Summary of the method: (§5)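 Off-chip mobility-shift assay measuring conversion of a fluorescently labelled peptide substrate, in 100 mM HEPES pH 7.5, 1 mM DTT, 1 mM MgCl2 and 0.015% Brij-35. Reactions ran 90 min at 25 C and were stopped with EDTA. IC50s were derived from percent-conversion dose-response curves.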

KDR = biological target: T4, KDR (Homo sapiens, UniProt P35968); experiment: KDR enzymatic assay (Caliper LifeSciences technology); format: biochemical
T4 construct: purchased BPS Bioscience, CA, USA
Summary of the method: as §5

Zap70 = biological target: T5, Zap70 (Homo sapiens, UniProt P43403); experiment: ZAP-70 enzymatic assay (Caliper LifeSciences technology); format: biochemical
T5 construct: purchased BPS Bioscience, CA, USA
T5 sequence (P43403 1-619): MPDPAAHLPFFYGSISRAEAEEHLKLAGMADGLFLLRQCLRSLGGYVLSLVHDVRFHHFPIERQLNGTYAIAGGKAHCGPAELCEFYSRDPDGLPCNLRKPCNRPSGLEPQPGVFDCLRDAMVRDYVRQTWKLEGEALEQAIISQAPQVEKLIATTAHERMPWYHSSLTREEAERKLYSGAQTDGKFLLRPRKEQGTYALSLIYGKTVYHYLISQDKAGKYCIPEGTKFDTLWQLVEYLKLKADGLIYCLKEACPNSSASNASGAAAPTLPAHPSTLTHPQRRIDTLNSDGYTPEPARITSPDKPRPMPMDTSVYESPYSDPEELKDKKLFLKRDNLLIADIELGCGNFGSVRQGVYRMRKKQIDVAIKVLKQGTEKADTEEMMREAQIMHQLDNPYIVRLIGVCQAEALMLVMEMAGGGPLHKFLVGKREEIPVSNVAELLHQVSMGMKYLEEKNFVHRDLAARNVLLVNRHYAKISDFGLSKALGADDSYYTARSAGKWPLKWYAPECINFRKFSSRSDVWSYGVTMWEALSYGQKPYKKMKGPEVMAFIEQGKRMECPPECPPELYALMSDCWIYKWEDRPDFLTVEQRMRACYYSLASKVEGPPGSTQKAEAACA
Description: as §1, §2, §3, §4

[2] = system: RA Phase II studies in humans; conditions: cited from earlier work
murine model of RA = conditions: cited from earlier work

T4 sequence (P35968 20-1356): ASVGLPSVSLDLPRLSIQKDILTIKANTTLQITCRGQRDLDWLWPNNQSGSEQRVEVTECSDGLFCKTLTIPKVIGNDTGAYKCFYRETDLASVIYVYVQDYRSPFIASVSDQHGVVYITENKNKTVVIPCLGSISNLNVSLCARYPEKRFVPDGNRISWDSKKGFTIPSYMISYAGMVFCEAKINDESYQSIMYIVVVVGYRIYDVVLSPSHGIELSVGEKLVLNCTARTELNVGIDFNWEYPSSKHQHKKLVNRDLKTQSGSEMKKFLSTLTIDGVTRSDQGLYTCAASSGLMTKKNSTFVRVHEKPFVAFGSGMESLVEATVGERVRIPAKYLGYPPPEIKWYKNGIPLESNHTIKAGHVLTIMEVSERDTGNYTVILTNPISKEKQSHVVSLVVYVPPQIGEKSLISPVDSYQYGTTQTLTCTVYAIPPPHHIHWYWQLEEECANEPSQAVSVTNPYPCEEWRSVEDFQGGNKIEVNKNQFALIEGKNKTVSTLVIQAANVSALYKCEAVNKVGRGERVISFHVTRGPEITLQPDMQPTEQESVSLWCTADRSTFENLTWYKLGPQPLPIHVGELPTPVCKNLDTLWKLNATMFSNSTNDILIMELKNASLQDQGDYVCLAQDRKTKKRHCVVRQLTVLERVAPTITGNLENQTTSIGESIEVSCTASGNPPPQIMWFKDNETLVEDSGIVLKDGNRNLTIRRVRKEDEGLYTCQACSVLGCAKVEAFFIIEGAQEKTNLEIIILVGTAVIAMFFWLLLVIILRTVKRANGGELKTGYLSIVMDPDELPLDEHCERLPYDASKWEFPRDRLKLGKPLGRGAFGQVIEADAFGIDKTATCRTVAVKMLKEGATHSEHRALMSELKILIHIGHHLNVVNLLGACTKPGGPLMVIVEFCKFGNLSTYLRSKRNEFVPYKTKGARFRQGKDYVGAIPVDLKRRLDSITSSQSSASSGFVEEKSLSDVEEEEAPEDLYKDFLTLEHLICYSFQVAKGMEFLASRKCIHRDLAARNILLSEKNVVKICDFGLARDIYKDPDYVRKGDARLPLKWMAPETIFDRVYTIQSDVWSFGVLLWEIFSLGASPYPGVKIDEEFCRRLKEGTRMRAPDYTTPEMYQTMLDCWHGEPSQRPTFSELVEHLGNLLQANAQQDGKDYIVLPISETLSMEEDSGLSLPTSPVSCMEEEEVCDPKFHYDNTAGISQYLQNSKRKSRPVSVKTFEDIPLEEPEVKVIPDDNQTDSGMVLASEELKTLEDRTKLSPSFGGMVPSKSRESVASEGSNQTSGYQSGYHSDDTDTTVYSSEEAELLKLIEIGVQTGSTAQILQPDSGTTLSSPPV
T3 sequence (P12931 whole entry): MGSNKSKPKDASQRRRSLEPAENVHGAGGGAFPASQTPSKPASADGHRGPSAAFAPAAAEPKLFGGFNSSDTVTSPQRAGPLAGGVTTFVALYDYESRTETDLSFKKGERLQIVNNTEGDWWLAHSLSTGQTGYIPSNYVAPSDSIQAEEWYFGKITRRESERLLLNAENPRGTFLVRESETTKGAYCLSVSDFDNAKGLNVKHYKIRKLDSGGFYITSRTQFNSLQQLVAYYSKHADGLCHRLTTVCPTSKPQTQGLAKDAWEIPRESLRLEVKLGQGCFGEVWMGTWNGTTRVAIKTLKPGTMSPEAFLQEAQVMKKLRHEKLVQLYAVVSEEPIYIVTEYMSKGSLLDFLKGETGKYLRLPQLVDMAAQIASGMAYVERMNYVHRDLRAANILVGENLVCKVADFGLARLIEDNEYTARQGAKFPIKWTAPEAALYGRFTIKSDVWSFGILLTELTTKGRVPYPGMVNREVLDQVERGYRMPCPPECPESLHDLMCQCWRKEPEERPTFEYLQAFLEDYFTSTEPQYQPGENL
T2 sequence (Q06187 whole entry): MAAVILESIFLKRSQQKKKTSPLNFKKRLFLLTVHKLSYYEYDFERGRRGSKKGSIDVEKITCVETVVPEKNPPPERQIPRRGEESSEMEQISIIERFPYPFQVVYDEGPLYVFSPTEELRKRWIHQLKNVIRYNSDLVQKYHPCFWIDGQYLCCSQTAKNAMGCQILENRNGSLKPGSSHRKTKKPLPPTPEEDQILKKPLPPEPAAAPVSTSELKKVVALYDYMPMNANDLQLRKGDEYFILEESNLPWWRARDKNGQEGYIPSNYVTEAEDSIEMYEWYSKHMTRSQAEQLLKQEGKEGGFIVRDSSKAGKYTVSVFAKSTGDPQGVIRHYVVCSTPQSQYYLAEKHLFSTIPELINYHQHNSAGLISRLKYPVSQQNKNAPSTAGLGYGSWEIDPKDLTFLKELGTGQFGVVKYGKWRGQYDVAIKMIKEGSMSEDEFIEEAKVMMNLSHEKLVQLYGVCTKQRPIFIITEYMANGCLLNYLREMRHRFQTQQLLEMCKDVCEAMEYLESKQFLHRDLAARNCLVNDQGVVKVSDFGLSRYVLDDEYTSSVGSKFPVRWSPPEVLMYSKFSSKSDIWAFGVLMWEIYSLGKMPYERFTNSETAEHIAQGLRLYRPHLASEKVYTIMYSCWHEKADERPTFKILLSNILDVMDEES

IC50 [1]	IC50 (Syk)	IC50 (BTK)	IC50 (SRC)	IC50 (KDR)	IC50 (Zap70)	Compound	efficacy (ACR scores) [2]	tolerability [2]	bone erosion (murine model of RA)	serum cytokine concentrations (murine model of RA)	clinical scores (murine model of RA; orally available)
3000 to 50000 nM	< 300 nM	300 to 3000 nM	< 300 nM	< 300 nM		COc1cc(-c2cc3nccc(Nc4ccc5[nH]ccc5c4)c3o2)cc(OC)c1OC [Compound B30]					
3000 to 50000 nM	< 300 nM					COc1cc(-c2cc3nccc(-c4ccccc4)c3o2)cc(OC)c1OC [Compound A5, 7-Phenyl-2-(3,4,5-trimethoxy-phenyl)-furo[3,2-b]pyridine]					

The remaining lines, values behind:

Compound	IC50 [1]	IC50 (Syk)	IC50 (BTK)	IC50 (SRC)	IC50 (KDR)	IC50 (Zap70)	efficacy (ACR scores) [2]	tolerability [2]	bone erosion (murine model of RA)	serum cytokine concentrations (murine model of RA)	clinical scores (murine model of RA; orally available)
COc1cc(-c2cc3nccc(-c4ccc5[nH]ccc5c4)c3o2)cc(OC)c1OC [Compound B74, 7-(1H-Indol-5-yl)-2-(3,4,5-trimethoxyphenyl)furo[3,2-b]pyridine]	300 to 3000 nM	300 to 3000 nM	3000 to 50000 nM								
COc1cc(-c2cc3nccc(Nc4ccc5[nH]ccc5c4C)c3o2)cc(OC)c1OC [Compound B22]	3000 to 50000 nM	< 300 nM	300 to 3000 nM	< 300 nM	< 300 nM						
COc1cc(-c2cc3nccc(-c4cc[nH]n4)c3o2)cc(OC)c1OC [Compound C73]		< 300 nM	3000 to 50000 nM	300 to 3000 nM	< 300 nM	300 to 3000 nM					
COc1cc(Nc2ncc(F)c(Nc3ccc4c(n3)NC(=O)C(C)(C)O4)n2)cc(OC)c1OC [Compound R406]							ACR scores improvement	good tolerability	significantly reduced	significantly reduced	significant improvement
COc1cc(-c2cc3nccc(-c4ccc5c(c4)NC(=O)C5)c3o2)cc(OC)c1OC [Compound B71, 6-(2-(3,4,5-Trimethoxyphenyl)furo[3,2-b]pyridin-7-yl)indolin-2-one]	3000 to 50000 nM	< 300 nM			3000 to 50000 nM	3000 to 50000 nM					
